According to ChEMBL document CHEMBL1201862, “PubChem BioAssay data set” (2004):
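A five-concentration, 48-hour dose response in 96-well plates underlies each endpoint, interpolated linearly between surrounding concentrations. GI50 = concentration required for 50% inhibition of growth.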 The source made the active and inactive calls. No stated cut-off is given here; in the data, active = GI50 up to about 1.1 µM and inactive = higher.

Columns and labels:
Assay in all cases: growth of human tumour cells (NCI), 48 h
COLO 205 = test system: COLO 205
NCI-H522 = test system: NCI-H522
MCF7 = test system: MCF7
MOLT-4 = test system: MOLT-4
SK-MEL-28 = test system: SK-MEL-28
T47D = test system: T47D
RPMI-8226 = test system: RPMI-8226
SNB-19 = test system: SNB-19
SR = test system: SR
PC-3 = test system: PC-3
KM12 = test system: KM12
SK-OV-3 = test system: SK-OV-3
SNB-75 = test system: SNB-75
MDA-MB-231 = test system: MDA-MB-231
NCI/ADR-RES = test system: NCI/ADR-RES
HL-60 = test system: HL-60
HCT-116 = test system: HCT-116
MDA-MB-435 = test system: MDA-MB-435
UO-31 = test system: UO-31
BT-549 = test system: BT-549
HT-29 = test system: HT-29
DU-145 = test system: DU-145
SK-MEL-5 = test system: SK-MEL-5
CCRF-CEM = test system: CCRF-CEM
MDA-N = test system: MDA-N
NCI-H226 = test system: NCI-H226
SF-539 = test system: SF-539
NCI-H23 = test system: NCI-H23
IGROV-1 = test system: IGROV-1
786-0 = test system: 786-0
CAKI-1 = test system: CAKI-1
RXF 393 = test system: RXF 393
OVCAR-4 = test system: OVCAR-4
EKVX = test system: EKVX
UACC-257 = test system: UACC-257
OVCAR-8 = test system: OVCAR-8
SW-620 = test system: SW-620
U-251 = test system: U-251
Hs-578T = test system: Hs-578T
HOP-92 = test system: HOP-92
SK-MEL-2 = test system: SK-MEL-2
OVCAR-3 = test system: OVCAR-3
SN12C = test system: SN12C
LOX IMVI = test system: LOX IMVI
OVCAR-5 = test system: OVCAR-5
HCT-15 = test system: HCT-15
TK-10 = test system: TK-10
ACHN = test system: ACHN
M14 = test system: M14
SF-268 = test system: SF-268
K562 = test system: K562
A498 = test system: A498
Malme-3M = test system: Malme-3M
HOP-62 = test system: HOP-62
SF-295 = test system: SF-295
A549 = test system: A549
UACC-62 = test system: UACC-62
NCI-H460 = test system: NCI-H460

COc1c(Cl)ccc(Cl)c1-c1nnc(-c2c(Cl)c(Cl)c(Cl)c(Cl)c2-c2nc3cc(C(=O)c4ccccc4)ccc3[nH]2)o1
GI50 (COLO 205): 21.9 µM (inactive) | GI50 (NCI-H522): 22.9 µM (inactive) | GI50 (MCF7): 31.6 µM (inactive) | GI50 (MOLT-4): 26.4 µM (inactive) | GI50 (SK-MEL-28): 47.2 µM (inactive) | GI50 (T47D): > 100 µM (inactive) | GI50 (RPMI-8226): 23.8 µM (inactive) | GI50 (SNB-19): 62.2 µM (inactive) | GI50 (SR): 25.4 µM (inactive) | GI50 (PC-3): 46 µM (inactive) | GI50 (KM12): 45.5 µM (inactive) | GI50 (SK-OV-3): > 100 µM (inactive) | GI50 (SNB-75): 33.5 µM (inactive) | GI50 (MDA-MB-231): 43.8 µM (inactive) | GI50 (NCI/ADR-RES): 28.3 µM (inactive) | GI50 (HL-60): 34.5 µM (inactive) | GI50 (HCT-116): 63.1 µM (inactive) | GI50 (MDA-MB-435): 21.4 µM (inactive) | GI50 (UO-31): 75.7 µM (inactive) | GI50 (BT-549): 76.7 µM (inactive) | GI50 (HT-29): 57.8 µM (inactive) | GI50 (DU-145): > 100 µM (inactive) | GI50 (SK-MEL-5): 16.6 µM (inactive) | GI50 (CCRF-CEM): 24.9 µM (inactive) | GI50 (MDA-N): 20 µM (inactive) | GI50 (NCI-H226): 26.5 µM (inactive) | GI50 (SF-539): 22.1 µM (inactive) | GI50 (NCI-H23): 78.2 µM (inactive) | GI50 (IGROV-1): 45.5 µM (inactive) | GI50 (786-0): 73.6 µM (inactive) | GI50 (CAKI-1): > 100 µM (inactive) | GI50 (RXF 393): 20.8 µM (inactive) | GI50 (OVCAR-4): 43.5 µM (inactive) | GI50 (EKVX): 45.4 µM (inactive) | GI50 (UACC-257): 82.2 µM (inactive) | GI50 (OVCAR-8): > 100 µM (inactive) | GI50 (SW-620): 44.1 µM (inactive) | GI50 (U-251): 61 µM (inactive) | GI50 (Hs-578T): 42.2 µM (inactive) | GI50 (HOP-92): 53.7 µM (inactive) | GI50 (SK-MEL-2): 37.7 µM (inactive) | GI50 (OVCAR-3): 53.2 µM (inactive) | GI50 (SN12C): 64.7 µM (inactive) | GI50 (LOX IMVI): 54.1 µM (inactive) | GI50 (OVCAR-5): > 100 µM (inactive) | GI50 (HCT-15): 35.7 µM | GI50 (TK-10): > 100 µM (inactive) | GI50 (ACHN): > 100 µM (inactive) | GI50 (M14): 50.9 µM (inactive) | GI50 (SF-268): 57.1 µM (inactive) | GI50 (K562): 28.9 µM (inactive) | GI50 (A498): 24.8 µM (inactive) | GI50 (Malme-3M): 47.1 µM (inactive) | GI50 (HOP-62): 43.5 µM (inactive) | GI50 (SF-295): 29.4 µM (inactive) | GI50 (A549): 45.2 µM (inactive)

CC(CCN)(CCN)[N+](=O)[O-]
GI50 (COLO 205): > 100 µM (inactive) | GI50 (NCI-H522): > 100 µM (inactive) | GI50 (MCF7): > 100 µM (inactive) | GI50 (UACC-62): > 100 µM (inactive) | GI50 (MOLT-4): > 100 µM (inactive) | GI50 (SK-MEL-28): > 100 µM (inactive) | GI50 (T47D): > 100 µM (inactive) | GI50 (RPMI-8226): > 100 µM (inactive) | GI50 (SNB-19): > 100 µM (inactive) | GI50 (SR): > 100 µM (inactive) | GI50 (PC-3): > 100 µM (inactive) | GI50 (KM12): > 100 µM (inactive) | GI50 (SK-OV-3): > 100 µM (inactive) | GI50 (SNB-75): > 100 µM (inactive) | GI50 (MDA-MB-231): > 100 µM (inactive) | GI50 (NCI/ADR-RES): > 100 µM (inactive) | GI50 (HL-60): > 100 µM (inactive) | GI50 (HCT-116): > 100 µM (inactive) | GI50 (MDA-MB-435): > 100 µM (inactive) | GI50 (UO-31): > 100 µM (inactive) | GI50 (BT-549): > 100 µM (inactive) | GI50 (HT-29): > 100 µM (inactive) | GI50 (DU-145): > 100 µM (inactive) | GI50 (SK-MEL-5): > 100 µM (inactive) | GI50 (CCRF-CEM): > 100 µM (inactive) | GI50 (MDA-N): > 100 µM (inactive) | GI50 (NCI-H226): > 100 µM (inactive) | GI50 (SF-539): > 100 µM (inactive) | GI50 (NCI-H23): > 100 µM (inactive) | GI50 (IGROV-1): > 100 µM (inactive) | GI50 (786-0): > 100 µM (inactive) | GI50 (CAKI-1): > 100 µM (inactive) | GI50 (RXF 393): > 100 µM (inactive) | GI50 (OVCAR-4): > 100 µM (inactive) | GI50 (EKVX): > 100 µM (inactive) | GI50 (UACC-257): > 100 µM (inactive) | GI50 (OVCAR-8): > 100 µM (inactive) | GI50 (SW-620): > 100 µM (inactive) | GI50 (U-251): > 100 µM (inactive) | GI50 (Hs-578T): > 100 µM (inactive) | GI50 (HOP-92): > 100 µM (inactive) | GI50 (SK-MEL-2): > 100 µM (inactive) | GI50 (OVCAR-3): > 100 µM (inactive) | GI50 (SN12C): 77.3 µM (inactive) | GI50 (LOX IMVI): > 100 µM (inactive) | GI50 (OVCAR-5): > 100 µM (inactive) | GI50 (NCI-H460): > 100 µM (inactive) | GI50 (HCT-15): > 100 µM | GI50 (TK-10): > 100 µM (inactive) | GI50 (ACHN): > 100 µM (inactive) | GI50 (M14): > 100 µM (inactive) | GI50 (SF-268): > 100 µM (inactive) | GI50 (K562): > 100 µM (inactive) | GI50 (A498): > 100 µM (inactive) | GI50 (Malme-3M): > 100 µM (inactive) | GI50 (HOP-62): > 100 µM (inactive) | GI50 (SF-295): > 100 µM (inactive) | GI50 (A549): > 100 µM (inactive)

N=C(CCl)NC1CN2CCC1CC2 (stereo unspecified)
GI50 (COLO 205): 27.4 µM (inactive) | GI50 (NCI-H522): 19.4 µM (inactive) | GI50 (MCF7): 42.3 µM (inactive) | GI50 (UACC-62): > 100 µM (inactive) | GI50 (MOLT-4): 39.7 µM (inactive) | GI50 (SK-MEL-28): > 100 µM (inactive) | GI50 (T47D): 56.1 µM (inactive) | GI50 (RPMI-8226): > 100 µM (inactive) | GI50 (SNB-19): > 100 µM (inactive) | GI50 (SR): 32.7 µM (inactive) | GI50 (PC-3): > 100 µM (inactive) | GI50 (KM12): > 100 µM (inactive) | GI50 (SK-OV-3): > 100 µM (inactive) | GI50 (SNB-75): > 100 µM (inactive) | GI50 (MDA-MB-231): > 100 µM (inactive) | GI50 (NCI/ADR-RES): > 100 µM (inactive) | GI50 (HL-60): 18.4 µM (inactive) | GI50 (HCT-116): > 100 µM (inactive) | GI50 (MDA-MB-435): > 100 µM (inactive) | GI50 (BT-549): > 100 µM (inactive) | GI50 (HT-29): 48.3 µM (inactive) | GI50 (DU-145): > 100 µM (inactive) | GI50 (SK-MEL-5): > 100 µM (inactive) | GI50 (CCRF-CEM): 18.6 µM (inactive) | GI50 (MDA-N): > 100 µM (inactive) | GI50 (NCI-H226): > 100 µM (inactive) | GI50 (SF-539): 60.5 µM (inactive) | GI50 (NCI-H23): > 100 µM (inactive) | GI50 (IGROV-1): > 100 µM (inactive) | GI50 (786-0): 97.5 µM (inactive) | GI50 (CAKI-1): 50.9 µM (inactive) | GI50 (RXF 393): > 100 µM (inactive) | GI50 (OVCAR-4): 59 µM (inactive) | GI50 (EKVX): 67.5 µM (inactive) | GI50 (UACC-257): > 100 µM (inactive) | GI50 (OVCAR-8): > 100 µM (inactive) | GI50 (SW-620): 68.7 µM (inactive) | GI50 (U-251): 49.1 µM (inactive) | GI50 (Hs-578T): > 100 µM (inactive) | GI50 (HOP-92): > 100 µM (inactive) | GI50 (SK-MEL-2): > 100 µM (inactive) | GI50 (OVCAR-3): > 100 µM (inactive) | GI50 (SN12C): 66.7 µM (inactive) | GI50 (LOX IMVI): 34.1 µM (inactive) | GI50 (OVCAR-5): 75 µM (inactive) | GI50 (NCI-H460): > 100 µM (inactive) | GI50 (HCT-15): > 100 µM | GI50 (TK-10): > 100 µM (inactive) | GI50 (ACHN): 87.7 µM (inactive) | GI50 (M14): > 100 µM (inactive) | GI50 (SF-268): 92.9 µM (inactive) | GI50 (K562): > 100 µM (inactive) | GI50 (A498): > 100 µM (inactive) | GI50 (Malme-3M): > 100 µM (inactive) | GI50 (HOP-62): > 100 µM (inactive) | GI50 (SF-295): > 100 µM (inactive) | GI50 (A549): > 100 µM (inactive)
